Columns and labels:
Assay in all cases: competitive ELISA: relative affinity and cross-reactivity of monoclonal antibodies against Histamin-ITCB
[1] = tested on: monoklonaler Antikörper 1.68.168 gegen Histamin-ITCB; settings: amount of Histamin-ITCB for 50 % signal drop (50 % IC) in ELISA; antibody 1.68.168
Source text: (§1) Zur Ermittlung der Relativen Affinität werden Kompetitionskurven mit dem homologen Antigen ermittelt und ausgewertet.
(§2) Mikrotiterplatten werden mit 100 »l pro well einer Lösung aus 10 »g Thermo-SA-Streptavidin/ml (Herstellung nach EP-A 0269 092) in Puffer pH 9,6 eine Stunde bei Raumtemperatur beschichtet. Die Platten werden mit 0,9% Natriumchloridlösung gewaschen. […] Darauf werden 100 »l Probe in PBS eine Stunde bei Raumtemperatur inkubiert und erneut mit 0,9 % Natriumchloridlösung gewaschen. Es folgt eine weitere Inkubation (1 Stunde bei Raumtemperatur) mit 100 »l/well einer Lösung von 150 mU/ml eines Schaf-anti-Maus-IgG-Peroxidase-Konjugats (Boehringer Mannheim GmbH, Best.-Nr. 821489) in PBS/O,5 % RSA. Nach einem weiteren Waschschritt mit 0,9 % Natriumchloridlösung wird die Peroxidaseaktivität durch Zugabe von 100 »l/well einer ABTS®-Lösung (100 mg ABTS; 3,25 mmol/l Natriumperborat; 39,8 mmol/l Citronensäure; 60 mmol/l Natriumphosphat; pH 4,4-4,5) 30 min bei Raumtemperatur und anschließender Extinktionsmessung bei 405 nm bestimmt.
(§3) Die Kreuzreaktion wurde anschließend mit folgender Formel berechnet: [formula] C = Konzentration des jeweiligen Antigens, die zur Erreichung von 50 % des maximalen Signals erforderlich ist.

[2] = tested on: monoklonaler Antikörper 1.54.95 gegen Histamin-ITCB; settings: amount of Histamin-ITCB for 50 % signal drop (50 % IC) in ELISA; antibody 1.54.95
Source text: as §1, §2, §3

[3] = tested on: monoklonaler Antikörper 1.97.235 gegen Histamin-ITCB; settings: amount of Histamin-ITCB for 50 % signal drop (50 % IC) in ELISA; antibody 1.97.235
Source text: as §1, §2, §3

[4] = tested on: monoklonaler Antikörper 1.25.53 gegen Histamin-ITCB; settings: amount of Histamin-ITCB for 50 % signal drop (50 % IC) in ELISA; antibody 1.25.53
Source text: as §1, §2, §3

[5] = tested on: monoklonaler Antikörper 1.47.74 (ECACC 90071902) gegen Histamin-ITCB; settings: amount of Histamin-ITCB for 50 % signal drop (50 % IC) in ELISA; antibody 1.47.74
Source text: as §1, §2, §3

[6] = tested on: monoklonaler Antikörper 1.36.59 gegen Histamin-ITCB; settings: amount of Histamin-ITCB for 50 % signal drop (50 % IC) in ELISA; antibody 1.36.59
Source text: as §1, §2, §3

[7] = tested on: monoklonaler Antikörper 1.17.44 (ECACC 90071901) gegen Histamin-ITCB; settings: amount of Histamin-ITCB for 50 % signal drop (50 % IC) in ELISA; antibody 1.17.44
Source text: as §1, §2, §3

[8] = tested on: monoklonaler Antikörper 1.83.201 gegen Histamin-ITCB; settings: amount of Histamin-ITCB for 50 % signal drop (50 % IC) in ELISA; antibody 1.83.201
Source text: as §1, §2, §3

With `O=C(O)c1cccc(NC(=S)NCCc2c[nH]cn2)c1` [Histamin-ITCB, N-(3-Carboxyphenyl)-N'-[2-(4-imidazolyl)ethyl]thioharnstoff] the “Relative Affinität zu Histamin-ITCB” value [1] was 1,4 ng/ml, the “Relative Affinität zu Histamin-ITCB” value [2] was 1,5 ng/ml and the “Relative Affinität zu Histamin-ITCB” value [3] was 1,5 ng/ml. For the same compound, the “Relative Affinität zu Histamin-ITCB” value [4] was 1 ng/mL, the “Relative Affinität zu Histamin-ITCB” value [5] was 0,8 ng/ml and the “Relative Affinität zu Histamin-ITCB” value [6] was 1 ng/mL. For the same compound, the “Relative Affinität zu Histamin-ITCB” value [7] was 0,5 ng/ml and the “Relative Affinität zu Histamin-ITCB” value [8] was 0,75 ng/ml.

From patent EP0471345B1, “Determination of biogenous amines” (BOEHRINGER MANNHEIM GMBH, priority 1990, dated 1992)
